*1 amine or outer side, *2 acyl side, *3 side chain or, on linkers, in order; H or OH if unused. Where a SMILES comes first, the peptide text is derived from it. Side-chain parts run from the residue outwards. The star is where a group is joined. C18 diacid = O=C(O)CCCCCCCCCCCCCCCCC(=O)*; γGlu = O=C(O)[C@H](CCC(=O)[*:2])N[*:1]; Isovaleryl = CC(C)CC(=O)*; AEEA = NCCOCCOCC(=O)O
biological target: T1, Human Neuropeptide Y2 Receptor (Homo sapiens, UniProt P49146); assay: Radioligand binding competition assay (RLB); settings: Table 3; human 125I-PYY (1-36) 0.02 nM, Y2 receptor membranes; read-out: Ki
T1 construct: purchased CHEMICON HTS066M
T1 sequence (P49146 1-381): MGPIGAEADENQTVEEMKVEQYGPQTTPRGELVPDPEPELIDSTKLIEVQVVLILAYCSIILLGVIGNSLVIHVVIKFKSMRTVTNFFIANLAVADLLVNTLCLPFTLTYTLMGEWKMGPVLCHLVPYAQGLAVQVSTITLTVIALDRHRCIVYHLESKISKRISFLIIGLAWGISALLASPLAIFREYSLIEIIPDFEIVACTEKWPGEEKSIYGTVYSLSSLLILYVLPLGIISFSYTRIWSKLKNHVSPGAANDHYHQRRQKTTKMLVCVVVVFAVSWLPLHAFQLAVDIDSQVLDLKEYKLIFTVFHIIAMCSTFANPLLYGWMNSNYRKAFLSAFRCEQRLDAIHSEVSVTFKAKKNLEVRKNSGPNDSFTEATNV
Description: The filtration RLB assay was carried out in 96-well plates in a final volume of 100 μl per well. Freeze-dried test peptides were dissolved in 100% dimethyl sulfoxide (DMSO) to stock solutions of 1 mM and serial dilutions were performed in assay buffer (50 mM HEPES, 5 mM MgCl2, 1 mM CaCl2), pH 7.4) containing 0.2% ovalbumin. […] Next, 80 μL membranes (HTS066M, ChemiSCREEN™ Human Neuropeptide Y2 Receptor Membrane Preparation, CHEMICON) were added to each well to give a final protein concentration of 0.5 μg/well. The plates were sealed and incubated at room temperature for 2 hours in a plate shaker set at 400 rpm. The incubation was stopped by vacuum filtration onto 0.5% poly-ethylene amine (PEI) presoaked GF/C filters using a 96-well FilterMate™ harvester (Perkin Elmer) followed by four washes with 300 μl/well ice-cold wash buffer (50 mM HEPES, 500 mM NaCl, pH7.4). Filter plates were then dried for 60 min at room temperature and the bottom of the plates was sealed with backing tape UniFilter-96. Finally, 50 μl/well scintillation counter cocktail (Microscint20, Packard) was added and the radioactivity was counted in the Packard TopCount NXT scintillation counter. IC50 values (the half maximal inhibitory concentration of the agonist) were calculated by nonlinear regression analysis of sigmoidal dose-response curves.

SMILES	Ki [nM]
CC(C)CC(=O)N[C@@H](C)C(=O)N1CCC[C@H]1C(=O)N[C@@H](CCC(=O)O)C(=O)N[C@@H](CCCCNC(=O)COCCOCCNC(=O)COCCOCCNC(=O)CC[C@H](NC(=O)CCCCCCCCCCCCCCCCC(=O)O)C(=O)O)C(=O)N1CCC[C@H]1C(=O)N[C@@H](CCC(=O)O)C(=O)N[C@@H](CCC(=O)O)C(=O)N[C@@H](CC(=O)O)C(=O)N[C@@H](C)C(=O)N[C@@H](CCC(N)=O)C(=O)N1CCC[C@H]1C(=O)N[C@@H](CCC(=O)O)C(=O)N[C@@H](CCC(=O)O)C(=O)N[C@@H](CC(C)C)C(=O)N[C@@H](CCC(N)=O)C(=O)N[C@@H](CCC(=O)O)C(=O)N[C@@H](Cc1ccc(O)cc1)C(=O)N[C@@H](Cc1ccc(O)cc1)C(=O)N[C@H](C(=O)N[C@@H](CO)C(=O)N[C@@H](CC(C)C)C(=O)N[C@@H](CCCNC(=N)N)C(=O)N[C@@H](Cc1c[nH]cn1)C(=O)N[C@@H](Cc1ccc(O)cc1)C(=O)N[C@@H](Cc1ccc(O)cc1)C(=O)N[C@@H](CC(N)=O)C(=O)N[C@@H](Cc1c[nH]c2ccccc12)C(=O)N[C@@H](CC(C)C)C(=O)N[C@H](C(=O)N[C@@H](CCCNC(=N)N)C(=O)N[C@@H](CCC(N)=O)C(=O)N[C@@H](CCCNC(=N)N)C(=O)N[C@@H](Cc1ccc(O)cc1)C(N)=O)[C@@H](C)O)C(C)C [Compound 1, N{alpha-4}-(3-methylbutanoyl)-N{epsilon-7}-[2-(2-{2-[2-(2-{2-[(4S)-4-carboxy-4-(17-carboxyheptadecanamido)butanamido]ethoxy}ethoxy)acetamido]ethoxy}ethoxy)acetamido]-[4A,7K,9E,13Q,18Q,19E,22V,28Y,30W,31L]hPYY (4-36)] (Isovaleryl-APEK([AEEA-AEEA-γGlu-C18 diacid])PEEDAQPEELQEYYVSLRHYYNWLTRQRY-NH2)	2.5
CC(C)CC(=O)N[C@@H](C)C(=O)N1CCC[C@H]1C(=O)N[C@@H](CCC(=O)O)C(=O)N[C@@H](CCCCNC(=O)COCCOCCNC(=O)COCCOCCNC(=O)CC[C@H](NC(=O)CCCCCCCCCCCCCCCCC(=O)O)C(=O)O)C(=O)N1CCC[C@H]1C(=O)N[C@@H](CCC(=O)O)C(=O)N[C@@H](CCC(=O)O)C(=O)N[C@@H](CC(=O)O)C(=O)N[C@@H](C)C(=O)N[C@@H](CO)C(=O)N1CCC[C@H]1C(=O)N[C@@H](CCC(=O)O)C(=O)N[C@@H](CCC(=O)O)C(=O)N[C@@H](CC(C)C)C(=O)N[C@@H](CCC(N)=O)C(=O)N[C@@H](CCCNC(=N)N)C(=O)N[C@@H](Cc1ccc(O)cc1)C(=O)N[C@@H](Cc1ccc(O)cc1)C(=O)N[C@H](C(=O)N[C@@H](CO)C(=O)N[C@@H](CC(C)C)C(=O)N[C@@H](CCCNC(=N)N)C(=O)N[C@@H](Cc1c[nH]cn1)C(=O)N[C@@H](Cc1ccc(O)cc1)C(=O)N[C@@H](Cc1ccc(O)cc1)C(=O)N[C@@H](CC(N)=O)C(=O)N[C@@H](Cc1c[nH]c2ccccc12)C(=O)N[C@@H](CC(C)C)C(=O)N[C@@H](CCC(N)=O)C(=O)N[C@@H](CCCNC(=N)N)C(=O)N[C@@H](CCC(N)=O)C(=O)N[C@@H](CCCNC(=N)N)C(=O)N[C@@H](Cc1ccc(O)cc1)C(N)=O)C(C)C [Compound 4, N{alpha-4}-(3-methylbutanoyl)-N{epsilon-7}-[2-(2-{2-[2-(2-{2-[(4S)-4-carboxy-4-(17-carboxyheptadecanamido)butanamido]ethoxy}ethoxy)acetamido]ethoxy}ethoxy)acetamido]-[4A,7K,9E,18Q,22V,28Y,30W,31L,32Q]hPYY (4-36)]	1.43
CC(C)CC(=O)N[C@@H](C)C(=O)N1CCC[C@H]1C(=O)N[C@@H](CCC(=O)O)C(=O)N[C@@H](CCCCNC(=O)COCCOCCNC(=O)COCCOCCNC(=O)CC[C@H](NC(=O)CCCCCCCCCCCCCCCCC(=O)O)C(=O)O)C(=O)N1CCC[C@H]1C(=O)N[C@@H](CCC(=O)O)C(=O)N[C@@H](C)C(=O)N[C@@H](CC(=O)O)C(=O)N[C@@H](C)C(=O)N[C@@H](CO)C(=O)N1CCC[C@H]1C(=O)N[C@@H](CCC(=O)O)C(=O)N[C@@H](CCC(=O)O)C(=O)N[C@H](C(=O)N[C@@H](CCC(N)=O)C(=O)N[C@@H](CCCNC(=N)N)C(=O)N[C@@H](Cc1ccc(O)cc1)C(=O)N[C@@H](Cc1ccc(O)cc1)C(=O)N[C@H](C(=O)N[C@@H](CO)C(=O)N[C@@H](CC(C)C)C(=O)N[C@@H](CCCNC(=N)N)C(=O)N[C@@H](Cc1c[nH]cn1)C(=O)N[C@@H](Cc1ccc(O)cc1)C(=O)N[C@@H](Cc1ccc(O)cc1)C(=O)N[C@@H](CC(N)=O)C(=O)N[C@@H](Cc1c[nH]c2ccccc12)C(=O)N[C@@H](CC(C)C)C(=O)N[C@H](C(=O)N[C@@H](CCCNC(=N)N)C(=O)N[C@@H](CCC(N)=O)C(=O)N[C@@H](CCCNC(=N)N)C(=O)N[C@@H](Cc1ccc(O)cc1)C(N)=O)[C@@H](C)O)C(C)C)[C@@H](C)O [Compound 10, N{alpha-4}-(3-methylbutanoyl)-N{epsilon-7}-[2-(2-{2-[2-(2-{2-[(4S)-4-carboxy-4-(17-carboxyheptadecanamido)butanamido]ethoxy}ethoxy)acetamido]ethoxy}ethoxy)acetamido]-[4A,7K,9E,10A,17T,18Q,22V,28Y,30W,31L]hPYY (4-36)]	1.28

Now from value to compound:

Ki [nM]	SMILES
14.8	CC(C)CC(=O)N[C@@H](C)C(=O)N1CCC[C@H]1C(=O)N[C@@H](CCC(=O)O)C(=O)N[C@@H](CCCCNC(=O)COCCOCCNC(=O)COCCOCCNC(=O)CC[C@H](NC(=O)CCCCCCCCCCCCCCCCC(=O)O)C(=O)O)C(=O)N1CCC[C@H]1C(=O)N[C@@H](CCC(=O)O)C(=O)N[C@@H](CCC(=O)O)C(=O)N[C@@H](CCC(=O)O)C(=O)N[C@H](C(=O)N[C@@H](CO)C(=O)N1CCC[C@H]1C(=O)N[C@@H](CCC(=O)O)C(=O)N[C@@H](CCC(=O)O)C(=O)N[C@@H](CC(C)C)C(=O)N[C@@H](CCC(N)=O)C(=O)N[C@@H](CCCNC(=N)N)C(=O)N[C@@H](Cc1ccc(O)cc1)C(=O)N[C@@H](Cc1ccc(O)cc1)C(=O)N[C@H](C(=O)N[C@@H](CO)C(=O)N[C@@H](CC(C)C)C(=O)N[C@@H](CCCNC(=N)N)C(=O)N[C@@H](Cc1c[nH]cn1)C(=O)N[C@@H](Cc1ccc(O)cc1)C(=O)N[C@@H](Cc1ccc(O)cc1)C(=O)N[C@@H](CC(N)=O)C(=O)N[C@@H](Cc1c[nH]c2ccccc12)C(=O)N[C@@H](CC(C)C)C(=O)N[C@H](C(=O)N[C@@H](CCCNC(=N)N)C(=O)N[C@@H](CCC(N)=O)C(=O)N[C@@H](CCCNC(=N)N)C(=O)N[C@@H](Cc1ccc(O)cc1)C(N)=O)[C@@H](C)O)C(C)C)C(C)C [Compound 5, N{alpha-4}-(3-methylbutanoyl)-N{epsilon-7}-[2-(2-{2-[2-(2-{2-[(4S)-4-carboxy-4-(17-carboxyheptadecanamido)butanamido]ethoxy}ethoxy)acetamido]ethoxy}ethoxy)acetamido]-[4A,7K,9E,11E,12V,18Q,22V,28Y,30W,31L]hPYY (4-36)] (Isovaleryl-APEK([AEEA-AEEA-γGlu-C18 diacid])PEEEVSPEELQRYYVSLRHYYNWLTRQRY-NH2)
6.52	CC(C)CC(=O)N[C@@H](C)C(=O)N1CCC[C@H]1C(=O)N[C@@H](CCC(=O)O)C(=O)N[C@@H](CCCCNC(=O)COCCOCCNC(=O)COCCOCCNC(=O)CC[C@H](NC(=O)CCCCCCCCCCCCCCCCC(=O)O)C(=O)O)C(=O)N1CCC[C@H]1C(=O)N[C@@H](CCC(=O)O)C(=O)N[C@@H](CCC(=O)O)C(=O)N[C@@H](CCC(=O)O)C(=O)N[C@@H](C)C(=O)N[C@@H](CO)C(=O)N1CCC[C@H]1C(=O)N[C@@H](CCC(=O)O)C(=O)N[C@@H](CCC(=O)O)C(=O)N[C@@H](CC(C)C)C(=O)N[C@@H](CCC(N)=O)C(=O)N[C@@H](CCCNC(=N)N)C(=O)N[C@@H](Cc1ccc(O)cc1)C(=O)N[C@@H](Cc1ccc(O)cc1)C(=O)N[C@H](C(=O)N[C@@H](CO)C(=O)N[C@@H](C)C(=O)N[C@@H](CCCNC(=N)N)C(=O)N[C@@H](Cc1c[nH]cn1)C(=O)N[C@@H](Cc1ccc(O)cc1)C(=O)N[C@@H](Cc1ccc(O)cc1)C(=O)N[C@@H](CC(N)=O)C(=O)N[C@@H](Cc1c[nH]c2ccccc12)C(=O)N[C@@H](CC(C)C)C(=O)N[C@H](C(=O)N[C@@H](CCCNC(=N)N)C(=O)N[C@@H](CCC(N)=O)C(=O)N[C@@H](CCCNC(=N)N)C(=O)N[C@@H](Cc1ccc(O)cc1)C(N)=O)[C@@H](C)O)C(C)C [Compound 6, N{alpha-4}-(3-methylbutanoyl)-N{epsilon-7}-[2-(2-{2-[2-(2-{2-[(4S)-4-carboxy-4-(17-carboxyheptadecanamido)butanamido]ethoxy}ethoxy)acetamido]ethoxy}ethoxy)acetamido]-[4A,7K,9E,11E,18Q,22V,24A,28Y,30W,31L]hPYY (4-36)] (Isovaleryl-APEK([AEEA-AEEA-γGlu-C18 diacid])PEEEASPEELQRYYVSARHYYNWLTRQRY-NH2)
